Results from paper PMC7680422 (European journal of medicinal chemistry, 2020).
“Also recorded” adds a separate entry of the source.

Tests used:
[1] = tested on: methamphetamine self-administration; conditions: short access and long access groups; cited from earlier work
[2] = Phase I metabolic stability in rat liver microsomes; type: in vitro ADME
[3] = Phase I metabolic stability in mouse liver microsomes; type: in vitro ADME
Swiss Webster mice = test: Locomotor activity studies in mice; conditions: i.p., doses up to 30 mg/kg, distance travelled
[4] = biological target: dopamine transporter (DAT) (Rattus norvegicus, UniProt P23977); test: DAT binding assay, [3H]WIN35,428, rat striatum membranes
Sequence of dopamine transporter (DAT) (P23977 whole entry): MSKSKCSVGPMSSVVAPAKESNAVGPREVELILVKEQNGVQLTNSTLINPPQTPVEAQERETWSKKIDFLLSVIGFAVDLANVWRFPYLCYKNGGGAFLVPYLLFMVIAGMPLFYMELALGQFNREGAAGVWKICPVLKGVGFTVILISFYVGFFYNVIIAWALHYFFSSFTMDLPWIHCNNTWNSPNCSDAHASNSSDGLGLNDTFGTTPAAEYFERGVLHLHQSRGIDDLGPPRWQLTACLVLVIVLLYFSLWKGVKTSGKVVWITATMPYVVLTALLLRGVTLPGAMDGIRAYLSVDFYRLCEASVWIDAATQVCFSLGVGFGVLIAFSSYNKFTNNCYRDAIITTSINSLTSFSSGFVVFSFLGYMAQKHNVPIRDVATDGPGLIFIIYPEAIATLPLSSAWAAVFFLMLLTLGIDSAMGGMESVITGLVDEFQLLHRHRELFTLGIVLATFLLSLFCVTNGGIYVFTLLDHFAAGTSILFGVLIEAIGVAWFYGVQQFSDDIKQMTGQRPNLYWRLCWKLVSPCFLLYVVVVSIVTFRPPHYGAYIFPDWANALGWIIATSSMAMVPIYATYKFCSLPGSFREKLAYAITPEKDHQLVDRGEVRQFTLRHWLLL

CC(O)CN1CCN(CC[S+]([O-])C(c2ccc(F)cc2)c2ccc(F)cc2)CC1 (stereo not shown) [Compound 1]
attenuation of methamphetamine self-administration (in words) [1]: effective in attenuating this behavior in both groups

[O-][S+](CCN1CCN(CC(O)Cc2ccccc2)CC1)C(c1ccc(F)cc1)c1ccc(F)cc1 (stereo not shown) [Compound 2]
attenuation of methamphetamine self-administration (in words) [1]: not effective in either rodent population

CC(O)CN1CCN(CCSC(c2ccc(F)cc2)c2ccc(F)cc2)CC1 (stereo not shown) [Compound 3a]
attenuation of methamphetamine self-administration (in words) [1]: effective only in the long access group

Fc1ccc(CN2CCC(NCCSC(c3ccc(F)cc3)c3ccc(F)cc3)CC2)cc1 [Compound 6b, N-(2-((Bis(4-fluorophenyl)methyl)thio)ethyl)-1-(4-fluorobenzyl)piperidin-4-amine]
metabolic stability / susceptibility to phase I metabolism (in words) [2]: relatively metabolically stable

[O-][S+](CCNC1CCN(Cc2ccc(F)cc2)CC1)C(c1ccc(F)cc1)c1ccc(F)cc1 (stereo not shown) [Compound 7, N-(2-((Bis(4-fluorophenyl)methyl)sulfinyl)ethyl)-1-(4-fluorobenzyl)piperidin-4-amine]
metabolic stability / susceptibility to phase I metabolism (in words) [3]: susceptibility to phase I metabolism; also recorded: significantly less stable | stimulation of ambulatory activity (in words) (Swiss Webster mice): only minimal stimulation of ambulatory activity | metabolic stability / susceptibility to phase I metabolism (in words) [2]: relatively metabolically stable

OC(Cc1ccccc1)CN1CCC(NCCSC(c2ccc(F)cc2)c2ccc(F)cc2)CC1 (stereo not shown) [Compound 10, 1-(4-((2-((Bis(4-fluorophenyl)methyl)thio)ethyl)amino)piperidin-1-yl)-3-phenylpropan-2-ol]
metabolic stability / susceptibility to phase I metabolism (in words) [2]: relatively metabolically stable

[O-][S+](CCNC1CCN(CC(O)Cc2ccccc2)CC1)C(c1ccc(F)cc1)c1ccc(F)cc1 (stereo not shown) [Compound 11, 1-(4-((2-((Bis(4-fluorophenyl)methyl)sulfinyl)ethyl)amino)piperidin-1-yl)-3-phenylpropan-2-ol]
metabolic stability / susceptibility to phase I metabolism (in words) [2]: less stable; also recorded: susceptibility to phase I metabolism

OC(CNC1CCN(CCSC(c2ccc(F)cc2)c2ccc(F)cc2)CC1)Cc1ccccc1 (stereo not shown) [Compound 16, 1-((1-(2-((Bis(4-fluorophenyl)methyl)thio)ethyl)piperidin-4-yl)amino)-3-phenylpropan-2-ol]
metabolic stability / susceptibility to phase I metabolism (in words) [2]: relatively metabolically stable

O=C(c1ccccc1)N1CCC(NCCSC(c2ccc(F)cc2)c2ccc(F)cc2)CC1 [Compound 19a, (4-((2-((Bis(4-fluorophenyl)methyl)thio)ethyl)amino)piperidin-1-yl)(phenyl)methanone]
metabolic stability / susceptibility to phase I metabolism (in words) [2]: less stable; also recorded: susceptibility to phase I metabolism

O=C(c1ccc(F)cc1)N1CCC(NCCSC(c2ccc(F)cc2)c2ccc(F)cc2)CC1 [Compound 19b, (4-((2-((Bis(4-fluorophenyl)methyl)thio)ethyl)amino)piperidin-1-yl)(4-fluorophenyl)methanone]
metabolic stability / susceptibility to phase I metabolism (in words) [2]: less stable; also recorded: susceptibility to phase I metabolism

O=C(c1ccccc1)N1CCC(NCC[S+]([O-])C(c2ccc(F)cc2)c2ccc(F)cc2)CC1 (stereo not shown) [Compound 21a, (4-((2-((Bis(4-fluorophenyl)methyl)sulfinyl)ethyl)amino)piperidin-1-yl)(phenyl)methanone]
DAT over SERT selectivity [4]: ~100 fold

O=C(c1ccc(F)cc1)N1CCC(NCC[S+]([O-])C(c2ccc(F)cc2)c2ccc(F)cc2)CC1 (stereo not shown) [Compound 21b, (4-((2-((Bis(4-fluorophenyl)methyl)sulfinyl)ethyl)amino)piperidin-1-yl)(4-fluorophenyl)methanone]
metabolic stability / susceptibility to phase I metabolism (in words) [3]: susceptibility to phase I metabolism; also recorded: significantly less stable | stimulation of ambulatory activity (in words) (Swiss Webster mice): only minimal stimulation of ambulatory activity | metabolic stability / susceptibility to phase I metabolism (in words) [2]: relatively metabolically stable

O=C(c1ccc(F)cc1F)N1CCC(NCCSC(c2ccc(F)cc2)c2ccc(F)cc2)CC1 [Compound 33, (4-((2-((Bis(4-fluorophenyl)methyl)thio)ethyl)amino)piperidin-1-yl)(2,4-difluorophenyl)methanone]
metabolic stability / susceptibility to phase I metabolism (in words) [3]: susceptibility to phase I metabolism; also recorded: significantly less stable | stimulation of ambulatory activity (in words) (Swiss Webster mice): only minimal stimulation of ambulatory activity

COC(=O)[C@H]1[C@@H](OC(=O)c2ccccc2)C[C@@H]2CC[C@H]1N2C [cocaine, reference compound]
stimulation of ambulatory activity (in words) (Swiss Webster mice): large, significant increase in ambulatory activity
